Test results from patent US9181309B1, “Peptide regulation of maize defense responses” (The United States of America, as represented by the …, priority 2011, dated 2015).

Experiments:
[1] = tested on: jasmonic acid and ethylene production in maize leaves; test: Phytohormone (JA, ET) production in treated leaves; format: in vivo, Zea mays
From the text: A further embodiment is ZmPEP3 regulated production of defense-related metabolites. The elicitor-induced phytohormones JA and ethylene (ET) function as signals integral to initiation of protective responses against pathogens and herbivores (Howe and Jander, Annu Rev Plant Biol. 59:41, 2008).

[2] = tested on: volatile emission from maize leaves; test: Volatile collection and GC analysis of emitted volatiles from excised maize leaves; format: in vivo, Zea mays
Method: Volatiles were collected by a previously described method (Schmelz et al., Planta. 214:171, 2001). Briefly, excised leaves were placed in glass cylinders (Analytical Research Systems, Gainesville, Fla., USA) and maintained under their original lighting conditions. Clean, humidified air was passed through the cylinders (550 ml/min) and the leaf-emitted volatiles were trapped on 50 mg Super Q (80/100 mesh; Alltech, Deerfield, Ill., USA) for 30 minutes. Super Q traps were eluted with 150 μl methylene chloride with 400 ng of nonyl acetate added as an internal standard. At least three leaf replicates were used for each treatment. Volatiles were analyzed by gas chromatography-mass spectrometry (GC-MS) using an Agilent (Agilent Technologies, Inc., Santa Clara, Calif.) 7890A gas chromatograph (carrier gas; He at 1.2 ml min^−1; splitless injector, temperature 220° C., injection volume 1 μl) with an DB-1MS column (100% Dimethylpolysiloxane; 15 m long, 250 μm i.d., 0.1 μm film thickness). Temperatures were programmed from 40° C. (0.5 min hold) at 12° C. min^−1 to 180° C. then 220° C. (2.0 min hold for the post run). Signals were captured with a flame ionization detector (250° C.). The GC was coupled to an HP 5973 quadrupole-type mass selective detector with transfer line, source, and quadrupole temperatures of 230° C., 230° C. and 150° C., respectively. […] Volatile compounds were identified by comparison of retention times with authentic standards and by comparison of mass spectra with Wiley and NIST libraries.

[3] = tested on: defense metabolites in maize leaves; test: Accumulation of defense metabolites within treated leaves (internal pools); format: in vivo, Zea mays
From the text: Induced terpene production is vital to anti-herbivore defenses in many plant species (Unsicker et al., Curr Opin Plant Biol. 12:479, 2009; Tholl, Curr Opin Plant Biol. 9:297, 2006; Keeling and Bohlmann, New Phytol 170:657, 2006). […] Expression of genes encoding the relevant biosynthetic enzymes, Anthranilic Acid Methyl Transferase 1 (AAMT1) and Indole-Glycerol Phosphate Lyase (IGL) were induced by both peptide and the insect elicitor ([…]., Plant Physiol 153:1795, 2010; Frey et al., Proc Natl Acad Sci USA. 97:14801, 2000). In addition to proteinaceous defenses, maize benzoxazinoids contribute to direct defenses against both herbivores and pathogens ([…] Agric Food Chem 57:1677, 2009). […] Oikawa et al., Phytochemistry. 56:669, 2001; Huffaker et al., Plant Physiol. 155:1325, 2011). […] It is hypothesized that simultaneous activation of both IGL and BX1 by ZmPep3 results in increased flux through the benzoxazinoid pathway to produce HDMBOA-Glc.

S. exigua = test: Larval growth on peptide-pretreated leaves; format: in vivo, Spodoptera exigua; details: compared to untreated or water-treated leaves
Method: To assess the role of ZmPep3-induced direct defenses, S. exigua growth on peptide-pretreated leaves was evaluated. […] This effect was expected given the potency of ZmPep3-induced proteins and benzoxazinoids against herbivores.

[4] = tested on: herbivore defense genes in maize leaves; test: Real time qPCR / qRT-PCR of defense and phytohormone biosynthesis genes in treated leaves
[5] = equivalent molar concentrations
[6] = low equivalent quantities of elicitor
[7] = real-time quantification, peptide-treated leaves

ZmPEP3: 23 amino acid maize plant elicitor peptide TRTPPWPPCPPEEGSGGNGGSHN (SEQ ID NO: 3) (Zea mays)
jasmonic acid accumulation in leaves ([1]; ZmPEP3-treated leaves): found to accumulate | JA and ET increases, ZmPep3 compared to Gln-18:3 ([1]; low equivalent quantities): greater magnitude and longer duration | JA and ET synthesis ([1]; low equivalent quantities of either elicitor): elicitation of JA and ET synthesis | increase in total defense volatile emission compared to water-supplied leaves ([2]; 1.8 nMol peptide per gram of leaf material): 91% | volatile profile vs water-supplied leaves ([2]; 18 or 180 fMols of peptide per gram of leaf, 30 minutes collection): almost the same as leaves supplied with water | lowest concentration with significant increases in defense volatile emission ([2]; 30 minutes collection): 1.8 pMol ZmPEP3 peptide per gram of leaf material | profile of volatile compounds emitted in thirty minutes ([2]; GC, vs water-supplied leaves): Many molecules are detected | difference in terpenes emitted, ZmPep3 versus Gln-18:3 [2, 5]: no significant quantitative difference | indole emission relative to damage alone ([2]; in vivo): increased above damage alone | spectrum of elicited volatile components compared with S. exigua herbivory ([2]; in vivo): same spectrum of volatile components | increase in DMNT emission over water-treated leaves ([2]; six hour period): 6 fold | increase in alpha-bergamotene emission over water-treated leaves ([2]; six hour period): over a thousand fold | increase in beta-caryophyllene emission over water-treated leaves ([2]; six hour period): over 100 fold | increase in beta-farnesene emission over water-treated leaves ([2]; six hour period): over 900 fold | increase in indole emission over water-treated leaves ([2]; six hour period): over 100 fold | increase in nerolidol emission over water-treated leaves ([2]; six hour period): 360 fold | anthranilate and indole in leaves ([3]; following treatment): increased | HDMBOA-Glc accumulation ([3]; in vivo): increased accumulation | anthranilate and indole accumulation, peptide vs Gln-18:3 ([3]; in vivo): significantly greater accumulation | accumulation of terpenes in internal pools, ZmPep3 vs Gln-18:3 ([3]; measured prior to volatile collection): significantly greater accumulation of terpenes | less biomass gain of second instar larvae (S. exigua): 40% | BX1 and BX2 expression by qRT-PCR ([4]; 12 h post-treatment): expressed | TPS10 and TPS23 gene expression, ZmPep3 versus Gln-18:3 [4, 5]: more strongly induced | expression of genes encoding Terpene Synthases (TPS) 10 and 23 [4, 5]: strongly activate expression | SerPIN and WIP1 expression by qRT-PCR ([4]; in vivo): highly expressed | expression of AAMT1 and IGL genes ([4]; in vivo): induced | ACC Oxidase and AOC transcript, ZmPep3-treated compared to Gln-18:3-treated leaves [4, 6]: greater quantities of transcript | accumulation of transcripts for ACC Oxidase, Allene Oxide Synthase and Allene Oxide Cyclase [4, 6]: significantly increased accumulation of transcripts | upregulation of genes encoding proteinase inhibitor proteins [4, 7]: more than a thousand-fold | upregulation of genes encoding terpene synthases [4, 7]: more than a thousand-fold
